Where “and” joins values, the source holds several entries; their conditions need not be identical. Identical values can stand only once.

In general, kon refers to a measure of how fast the partners come together.

In assay [1] the test system is thrombin mutant S195A. The arrangement: method as in PMID 29511224. The following applies: IF; cited from earlier work.
The subject of assay [2] is prethrombin-2 (S195A mutant). The assay is described as follows: Rapid kinetics (stopped-flow) of FPR binding to prethrombin-2. An excerpt: Rapid kinetics of FPR binding to thrombin resolved the two independent relaxations (Equations 3 and 4) for CS and the four independent rate constants. On the other hand, similar measurements for prethrombin-2 produced only a saturable relaxation increasing with [FPR] (Fig. 2A) ([30]), thereby preventing resolution of the four independent constants and a full comparison with the mature protease thrombin. This situation provides an ideal test for application of the method based on Equation 11. The saturable relaxation for FPR binding to prethrombin-2 increases from α(0) = […] to α(∞) = 150 ± 20 s^−1, with a midpoint xm = 200 ± 20 μM and α(xm) = 88 ± 9 s^−1 (Fig. 2A and Table 2). […] Interpretation of the saturable relaxation in terms of CS gives k12 = 150 ± 20 s^−1 and koff = 25 ± 3 s^−1. Application of Equation 11 then yields kon = 4.0 ± 0.4 μM^−1s^−1 and Equation 9 gives αˆ(0)=k12+k21 = 890 ± 90 s^−1, so k21 = 740 ± 70 s^−1 (Table 2). The value of kon is almost identical to that reported for the mature protease thrombin (2.6 ± 0.3 μM^−1s^−1), whilst the value of koff is 40-fold higher (25 ± 3 s^−1 versus 0.60 ± 0.06 s^−1) ([30]). […] The conclusion is independent of whether FPR binding to prethrombin-2 is interpreted according to CS or IF. Application of the conversion formulas in Table 1 gives rate constants for IF equal to kon = 4.0 ± 0.4 μM^−1s^−1, koff = 765 ± 80 s^−1, k23 = 120 ± 10 s^−1, and k32 = 29 ± 3 s^−1 (Table 2), thereby making the contribution of a decreased rate of dissociation in the protease even more evident. Importantly, the two sets of rate constants for IF and CS yield the same value for Kd,app (Table 2), as shown by application of Equation 10 and the conversion formulas in Table 1. The importance of koff in setting the difference between ligand binding to prethrombin-2 and thrombin was anticipated by previous studies ([30]). The method based on Equation 11 provides a quantitative estimate of the difference and adds rigor to previous conclusions.
(§1) Figure 2 Binding of FPR to thrombin zymogens.A, rapid kinetics of FPR binding to the zymogens prothrombin (closed circles) and prethrombin-2 (open circles), showing a saturable relaxation associated with the interaction. The lack of information on a fast relaxation increasing linearly with [FPR] prevented assignment of the value of kon in the original report ([30]). Curves were drawn with the empirical expression [α(0)xm+α(∞)x]/(xm+x) , where x =[FPR], with best-fit parameters listed in Table 2. B, fractional saturation of FPR binding to prothrombin (closed circles) and prethrombin-2 (open circles). These values, together with the parameters derived from the plots in panel A, allow for derivation of the value of kon from Equation 11. […] Data in panels A and B were taken from ([30]) and were obtained under the following experimental conditions: 400 mM ChCl, 50 mM Tris, 0.1% PEG8000, pH 8, at 15 °C. CS, conformational selection; FPR, H-D-Phe-Pro-Arg-p-nitroanilide; IF, induced fit.
The data analyzed in this study, that is, FPR binding to prethrombin-2, prothrombin, and thrombin (Figs. 2, A and B and 3, A and B) were taken from ([30]) without modification. The methodology used to produce the recombinant proteins, measure FPR binding by stopped-flow or equilibrium titrations is reported in ([30]) and references therein. Values of the slow relaxation α(x) (Fig. 1, A and B, 2A and 3A) are measured by stopped-slow as a function of the ligand concentration and derived from fit of the time evolution of the interaction according to the expression ([1])(12) A(x,t)=A0(x)+A1(x)exp{−α(x)t}

The subject of assay [3] is prothrombin. The assay is described as follows: Rapid kinetics (stopped-flow) of FPR binding to prothrombin. To be noted: model independent, fit of data from ref 30.
Excerpt: as §1
The method also offers a simple test of whether the experimental data under consideration require more complex binding mechanisms than IF or CS. This is an important property of the method that may prompt reconsideration of current interpretations of ligand binding in terms of IF or CS made from analysis of a single saturable relaxation. The denominator of Equation 11 introduces a constraint on the relative values of Kd,app and xm . If the resulting term is negative, the model independent parameters (Equations (5), (6), (7) and 10) of the slow relaxation cannot be interpreted in terms of IF or CS. The data describing the kinetic relaxation (Fig. 1, A and B) and equilibrium binding (Fig. 1C) become incompatible when interpreted with Equations 9 and 10 and more elaborate mechanisms should be considered. We illustrate this point for the case of FPR binding to prothrombin, which is the physiological zymogen precursor of thrombin ([23]). Prothrombin is composed of a protease domain identical to prethrombin-2 linked to additional kringles and Gla domains that are shed during activation to thrombin by prothrombinase in the penultimate step of the coagulation cascade ([23], [31]). Because prothrombin and prethrombin-2 share the same protease domain, binding of FPR may be expected to take place with a similar affinity and mechanism in the two zymogens. […]
The data analyzed in this study, that is, FPR binding to prethrombin-2, prothrombin, and thrombin (Figs. 2, A and B and 3, A and B) were taken from ([30]) without modification. […] Values of the slow relaxation α(x) (Fig. 1, A and B, 2A and 3A) are measured by stopped-slow as a function of the ligand concentration and derived from fit of the time evolution of the interaction according to the expression ([1])(12) A(x,t)=A0(x)+A1(x)exp{−α(x)t}

Setting [4] is: IF, conversion formulas of Table 1.
Setting [5] is: model independent, pH 8, 15 °C, fit of data from ref 30.

Turning to `N=C(N)NCCC[C@H](NC(=O)[C@@H]1CCCN1C(=O)[C@H](N)Cc1ccccc1)C(=O)Nc1ccc([N+](=O)[O-])cc1` [FPR, H-D-Phe-Pro-Arg-p-nitroanilide], in assay [1], the k23 is 13 ± 1 (13 ± 1) s^−1, the k32 was 2.6 ± 0.3 s⁻¹, the koffIF was 4.4 ± 0.4 s⁻¹ and the konIF is 2.6e+06 ± 300000 M⁻¹ s⁻¹. In addition, the “αˆ(0)=k12+k21” value in assay [2] (CS, from Equation 9) turned out to be 890 ± 90 s⁻¹. Further, in assay [2] (CS, method of this paper), the k12 is 150 ± 20 s⁻¹ and 150 ± 10 s⁻¹; the k21 turned out to be 740 ± 70 s⁻¹; the koffCS was 25 ± 3 s⁻¹; the konCS turned out to be 4e+06 ± 400000 M⁻¹ s⁻¹. In assay [2] (CS, prethrombin-2 versus thrombin), the “koff higher for prethrombin-2 than for thrombin” value was determined as 40 fold. In addition, in assay [2] (setting [4]), the k23 was determined as 120 ± 10 s⁻¹, the k32 came out at 29 ± 3 s⁻¹, the koffIF was 765 ± 80 s⁻¹ and the konIF worked out at 4e+06 ± 400000 M⁻¹ s⁻¹. The kon in assay [2] (model independent, derived from Equation 11) worked out at 4e+06 ± 400000 M⁻¹ s⁻¹. For the same compound, the “α(0), lower asymptote of slow relaxation” value in assay [2] (model independent, 400 mM ChCl, 50 mM Tris, 0.1% PEG8000, pH 8, 15 °C, fit of data from ref 30) was 25 ± 0.3 s⁻¹ and 25 ± 2 s⁻¹. Further, in assay [2] (setting [5]), the “xm, midpoint of the slow relaxation” value is 200 ± 20 µM; the “α(xm), slow relaxation at midpoint” value was found to be 88 ± 9 s⁻¹; the “α(∞), asymptote of slow relaxation” value is 150 ± 20 s⁻¹ and 150 ± 10 s⁻¹. The “α(0), asymptote of slow relaxation” value in assay [3] (400 mM ChCl, 50 mM Tris, 0.1% PEG8000, pH 8, 15 °C) is 45 ± 4 s⁻¹ and 45 ± 5 s⁻¹. In assay [3] (pH 8, 15 °C), the “xm, midpoint of the slow relaxation” value was determined as 54 ± 5 µM; the “α(xm), slow relaxation at midpoint” value was found to be 26 ± 3 s⁻¹; the “α(∞), asymptote of slow relaxation” value is 6.9 ± 0.7 s⁻¹.

The record behind these values is PMC10979105, “A simple method to resolve rate constants when the binding mechanism obeys induced fit or conformational selection” (The Journal of Biological Chemistry, 2024).
